The results in this text go back to patent US12365687B2 (Hoffmann-La Roche Inc., priority 2021, dated 2025).

Experiment [1] deals with human GABAA α5β2γ1 receptor (Homo sapiens (Human), UniProt P31644+Q8N1C3). In words: Radioligand binding assay for γ1-containing GABAA subtypes, [3H]RO7239181 competition (α5β2γ1).
Experiment [2] deals with human GABAA α2β2γ1 receptor (Homo sapiens (Human), UniProt P47869+Q8N1C3). Description: Radioligand binding assay for γ1-containing GABAA subtypes, [3H]RO7239181 competition (α2β2γ1).
In experiment [3] the target is human GABAA α1β3γ2 receptor (Homo sapiens (Human), UniProt P14867+P18507). In words: Radioligand binding assay for γ2-containing GABAA subtypes, [3H]Flumazenil competition (α1β3γ2). To be noted: for γ2/γ1 Selectivity Ratio: Ki α1β3γ2 (nM)/Ki α2β2γ1 (nM); for LogSel: Log[Ki α1β3γ2 (nM)/Ki α2β2γ1 (nM)].
Experiment [4] concerns the target α2β2γ1 GABAA receptor subtype (Homo sapiens (Human), UniProt P47869+Q8N1C3). Description: Two-electrode voltage clamp electrophysiology in Xenopus oocytes expressing GABAA receptors (modulation of GABA EC20 current). It counts as cell-based. The following applies: for Efficacy (GABA)%: % modulation of GABA EC20 = 100*(Fold increase-1), α2β2γ1 oocytes, compound at approx. 30-fold Ki; for Fold increase h-GABA-A α2β2γ1 oocyte @ 30-fold Ki: Xenopus oocytes expressing α2β2γ1, compound at approx. 30-fold its Ki α2β2γ1, GABA EC20 current. The essentials: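 Each concentration was tested on ≥3 oocytes held at −80 mV at room temperature, recorded 3-5 days post-injection. A control and a test response to EC20 GABA (1.5 min each) were superimposed and their point-by-point ratio taken. Peak ratio reported as % modulation of GABA EC20 = 100×(fold increase−1).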
(In general: Two-electrode voltage clamp is typically applied to oocytes expressing channels or transporters.)

Setting [5] is: Ki h-GABAA α2β2γ1, [3H]RO7239181 competition binding, human GABAA α2β2γ1.
Setting [6] is: Ki h-GABAA α2β2γ1, displacement of [3H]RO7239181, membranes of HEK293F cells expressing human receptors, means of two determinations.

As usually defined, the Ki is a measure of affinity in units of concentration, obtained from inhibition or displacement. As for `CC1CN(C(=O)c2nc3n(n2)-c2ccc(C(F)(F)F)c(Cl)c2C(c2ncccc2F)=N[C@H]3C)C1` [Example 135, [(4S)-7-chloro-6-(3-fluoro-2-pyridyl)-4-methyl-8-(trifluoromethyl)-4H-[1,2,4]triazolo[1,5-a][1,4]benzodiazepin-2-yl]-(3-methylazetidin-1-yl)methanone], the inhibitory constant (Ki) was 9.35 nM in experiment [1], 50.6 nM in experiment [2] (setting [5]), 50.6 nM in experiment [2] (setting [6]) and more than 30000 nM in experiment [3]. The “γ2/γ1 Selectivity Ratio” value in experiment [3] was found to be 592.7. The LogSel in experiment [3] is 2.77. In experiment [4], the “Efficacy (GABA)%” value was found to be 118%. Moreover, the “Fold increase h-GABA-A α2β2γ1 oocyte @ 30-fold Ki” value in experiment [4] is reported as 2.18.
With `Cc1cnc2n1-c1ccc(C(F)(F)F)c(Cl)c1C(c1ncccc1F)=N[C@H]2C` [Example 136, (4S)-7-chloro-6-(3-fluoro-2-pyridyl)-1,4-dimethyl-8-(trifluoromethyl)-4H-imidazo[1,2-a][1,4]benzodiazepine], the Ki in experiment [1] was found to be 6.22 nM; in experiment [2] (setting [5]), 37.5 nM; in experiment [2] (setting [6]), 37.5 nM; in experiment [3] it was 6130 nM. Further, the “γ2/γ1 Selectivity Ratio” value in experiment [3] was determined as 163.5. The LogSel in experiment [3] is given as 2.21. For the same molecule, the “Efficacy (GABA)%” value in experiment [4] came out at 116%. For the same molecule, in experiment [4], the “Fold increase h-GABA-A α2β2γ1 oocyte @ 30-fold Ki” value was found to be 2.16.
In the case of `C[C@@H]1N=C(c2ncccc2F)c2c(ccc(C(F)(F)F)c2Cl)-n2nc(C(=O)NCCO)nc21` [Example 138, (4S)-7-chloro-6-(3-fluoro-2-pyridyl)-N-(2-hydroxyethyl)-4-methyl-8-(trifluoromethyl)-4H-[1,2,4]triazolo[1,5-a][1,4]benzodiazepine-2-carboxamide], the inhibitory constant (Ki) in experiment [1] was 17.1 nM; in experiment [2] (setting [5]), 89.6 nM; in experiment [2] (setting [6]) it was 89.6 nM; in experiment [3] it was more than 30000 nM. The “γ2/γ1 Selectivity Ratio” value in experiment [3] is 334.8. The same molecule came in with a LogSel in experiment [3] of 2.52. Moreover, the “Efficacy (GABA)%” value in experiment [4] came out at 204%. The “Fold increase h-GABA-A α2β2γ1 oocyte @ 30-fold Ki” value in experiment [4] was 3.04.
In the case of `Cc1cn2c(n1)[C@H](C)N=C(c1ncccc1F)c1c-2ccc(C(F)(F)F)c1Cl` [Example 139, (4S)-7-chloro-6-(3-fluoro-2-pyridyl)-2,4-dimethyl-8-(trifluoromethyl)-4H-imidazo[1,2-a][1,4]benzodiazepine], affinity in experiment [1] was put at a Ki of 5.54 nM. For the same molecule, the Ki in experiment [2] (setting [5]) was 30.8 nM. Moreover, affinity in experiment [2] (setting [6]) was put at a Ki of 30.8 nM. In experiment [3], the affinity corresponds to a Ki of 3060 nM, the “γ2/γ1 Selectivity Ratio” value came out at 99.6 and the LogSel was 2.00. In experiment [4], the “Efficacy (GABA)%” value is reported as 149% and the “Fold increase h-GABA-A α2β2γ1 oocyte @ 30-fold Ki” value stood at 2.49.
In turn, `C[C@@H]1N=C(c2ncccc2F)c2c(ccc(C(F)(F)F)c2Cl)-n2nc(C(=O)N3CC(OC(F)F)C3)nc21` [Example 140, [(4S)-7-chloro-6-(3-fluor-2-pyridyl)-4-methyl-8-(trifluoromethyl)-4H-[1,2,4]triazolo[1,5-a][1,4]benzodiazepin-2-yl]-[3-(difluoromethoxy)azetidin-1-yl]methanone] displayed a Ki in experiment [1] of 6.63 nM. For the same molecule, the affinity in experiment [2] (setting [5]) corresponds to a Ki of 28.8 nM. Affinity in experiment [2] (setting [6]) was put at a Ki of 28.8 nM. In experiment [3], the inhibition constant Ki was more than 30000 nM, the “γ2/γ1 Selectivity Ratio” value is 1041.0 and the LogSel is recorded as 3.02. In experiment [4], the “Efficacy (GABA)%” value came out at 121% and the “Fold increase h-GABA-A α2β2γ1 oocyte @ 30-fold Ki” value worked out at 2.21.
As for `C[C@@H]1N=C(c2ncccc2F)c2c(ccc(C(F)(F)F)c2Cl)-n2cc(C(=O)NCCO)nc21` [Example 141, (4S)-7-chloro-6-(3-fluoro-2-pyridyl)-N-(2-hydroxyethyl)-4-methyl-8-(trifluoromethyl)-4H-imidazo[1,2-a][1,4]benzodiazepine-2-carboxamide], the affinity in experiment [1] corresponds to a Ki of 12.4 nM. In addition, the Ki in experiment [2] (setting [5]) is 55.9 nM. In experiment [2] (setting [6]), this molecule had an inhibition constant (Ki) of 55.9 nM. In addition, in experiment [3], affinity was put at a Ki of 12200 nM, the “γ2/γ1 Selectivity Ratio” value was 218.4 and the LogSel is listed as 2.34. Moreover, in experiment [4], the “Efficacy (GABA)%” value turned out to be 112% and the “Fold increase h-GABA-A α2β2γ1 oocyte @ 30-fold Ki” value was determined as 2.12.
With `C[C@@H]1N=C(c2ncccc2F)c2c(ccc(C(F)(F)F)c2Cl)-n2nc(C(=O)N3CC(C(F)F)C3)nc21` [Example 142, [(4S)-7-chloro-6-(3-fluoro-2-pyridyl)-4-methyl-8-(trifluoromethyl)-4H-[1,2,4]triazolo[1,5-a][1,4]benzodiazepin-2-yl]-[3-(difluoromethyl)azetidin-1-yl]methanone], the Ki in experiment [1] is 8.06 nM. For the same molecule, in experiment [2] (setting [5]), the affinity corresponds to a Ki of 39.7 nM. Besides, affinity in experiment [2] (setting [6]) was put at a Ki of 39.7 nM. For the same molecule, in experiment [3], the inhibition constant Ki was more than 30000 nM, the “γ2/γ1 Selectivity Ratio” value is reported as 756.0 and the LogSel turned out to be 2.88. Besides, in experiment [4], the “Efficacy (GABA)%” value came to 123% and the “Fold increase h-GABA-A α2β2γ1 oocyte @ 30-fold Ki” value worked out at 2.23.
As to `C[C@@H]1N=C(c2ncccc2F)c2c(ccc(C(F)(F)F)c2Cl)-n2nc(NC(=O)NC3CC3)nc21` [Example 143, 1-[(4S)-7-chloro-6-(3-fluoro-2-pyridyl)-4-methyl-8-(trifluoromethyl)-4H-[1,2,4]triazolo[1,5-a][1,4]benzodiazepin-2-yl]-3-cyclopropyl-urea], the Ki in experiment [1] worked out at 7.35 nM; in experiment [2] (setting [5]), 45.4 nM; in experiment [2] (setting [6]) it was 45.4 nM; in experiment [3], 13500 nM. For the same molecule, in experiment [3], the “γ2/γ1 Selectivity Ratio” value came out at 296.6. The same molecule had a LogSel in experiment [3] of 2.47. Moreover, the “Efficacy (GABA)%” value in experiment [4] is 110%. The “Fold increase h-GABA-A α2β2γ1 oocyte @ 30-fold Ki” value in experiment [4] is 2.10.
`COC1CN(C(=O)c2cn3c(n2)[C@H](C)N=C(c2ncccc2F)c2c-3ccc(C(F)(F)F)c2Cl)C1` [Example 145, [(4S)-7-chloro-6-(3-fluoro-2-pyridyl)-4-methyl-8-(trifluoromethyl)-4H-imidazo[1,2-a][1,4]benzodiazepin-2-yl]-(3-methoxyazetidin-1-yl)methanone] displayed a Ki in experiment [1] of 18.4 nM. The molecule also registered an inhibition constant (Ki) in experiment [2] (setting [5]) of 93.1 nM. In addition, the Ki in experiment [2] (setting [6]) worked out at 93.1 nM. In addition, in experiment [3], the Ki is 13200 nM, the “γ2/γ1 Selectivity Ratio” value was found to be 141.7 and the LogSel is 2.15. In addition, in experiment [4], the “Efficacy (GABA)%” value was found to be 168% and the “Fold increase h-GABA-A α2β2γ1 oocyte @ 30-fold Ki” value is recorded as 2.68.
Regarding `C[C@@H]1N=C(c2ncccc2F)c2c(ccc(C(F)(F)F)c2Cl)-n2nc(NC(=O)NC3COC3)nc21` [Example 146, 1-[(4S)-7-chloro-6-(3-fluoro-2-pyridyl)-4-methyl-8-(trifluoromethyl)-4H-[1,2,4]triazolo[1,5-a][1,4]benzodiazepin-2-yl]-3-(oxetan-3-yl)urea], the Ki in experiment [1] is 7.2 nM. For the same molecule, the Ki in experiment [2] (setting [5]) came out at 36.1 nM. Besides, in experiment [2] (setting [6]), the inhibition constant Ki is 36.1 nM. Besides, in experiment [3], the Ki was 13100 nM, the “γ2/γ1 Selectivity Ratio” value was 364.3 and the LogSel came out at 2.56. In experiment [4], the “Efficacy (GABA)%” value worked out at 111% and the “Fold increase h-GABA-A α2β2γ1 oocyte @ 30-fold Ki” value turned out to be 2.11.
For `C[C@@H]1N=C(c2ncccc2F)c2c(ccc(C(F)(F)F)c2Cl)-n2nc(N3CCOC3=O)nc21` [Example 147, 3-[(4S)-7-chloro-6-(3-fluoro-2-pyridyl)-4-methyl-8-(trifluoromethyl)-4H-[1,2,4]triazolo[1,5-a][1,4]benzodiazepin-2-yl]oxazolidin-2-one], in experiment [1], the Ki was determined as 7.44 nM. Besides, the Ki in experiment [2] (setting [5]) was found to be 49.3 nM. The Ki in experiment [2] (setting [6]) was 49.4 nM. Further, in experiment [3], affinity was put at a Ki of 12600 nM, the “γ2/γ1 Selectivity Ratio” value is 255.4 and the LogSel came to 2.41. Moreover, in experiment [4], the “Efficacy (GABA)%” value is on record as 113% and the “Fold increase h-GABA-A α2β2γ1 oocyte @ 30-fold Ki” value is reported as 2.13.
As for `Cc1cn2c(n1)[C@H](C)N=C(c1c(F)cccc1F)c1c-2ccc(C(F)(F)F)c1Cl` [Example 148, (4S)-7-chloro-6-(2,6-difluorophenyl)-2,4-dimethyl-8-(trifluoromethyl)-4H-imidazo[1,2-a][1,4]benzodiazepine], the Ki was 2.1 nM in experiment [1], 10.2 nM in experiment [2] (setting [5]), 10.2 nM in experiment [2] (setting [6]) and 866 nM in experiment [3]. In experiment [3], the “γ2/γ1 Selectivity Ratio” value is recorded as 84.7. The LogSel in experiment [3] is 1.93. Besides, the “Efficacy (GABA)%” value in experiment [4] was 73%. Moreover, in experiment [4], the “Fold increase h-GABA-A α2β2γ1 oocyte @ 30-fold Ki” value came out at 1.73.
In turn, `C[C@@H]1N=C(c2c(F)cccc2F)c2c(ccc(C(F)(F)F)c2Cl)-n2cc(CO)nc21` [Example 149, [(4S)-7-chloro-6-(2,6-difluorophenyl)-4-methyl-8-(trifluoromethyl)-4H-imidazo[1,2-a][1,4]benzodiazepin-2-yl]methanol] came in with an inhibition constant Ki in experiment [1] of 1.59 nM. This molecule had an inhibitory constant (Ki) in experiment [2] (setting [5]) of 8.3 nM. In experiment [2] (setting [6]), this molecule registered an inhibition constant (Ki) of 8.3 nM. In addition, in experiment [3], the affinity corresponds to a Ki of 1110 nM, the “γ2/γ1 Selectivity Ratio” value turned out to be 134.1 and the LogSel is 2.13. Also, in experiment [4], the “Efficacy (GABA)%” value is 71% and the “Fold increase h-GABA-A α2β2γ1 oocyte @ 30-fold Ki” value is given as 1.71.
As to `C[C@@H]1N=C(c2c(F)cccc2F)c2c(ccc(C(F)(F)F)c2Cl)-n2ccnc21` [Example 150, (4S)-7-chloro-6-(2,6-difluorophenyl)-4-methyl-8-(trifluoromethyl)-4H-imidazo[1,2-a][1,4]benzodiazepine], the Ki is 1.33 nM in experiment [1], 7.3 nM in experiment [2] (setting [5]), 7.3 nM in experiment [2] (setting [6]) and 758 nM in experiment [3]. For the same molecule, the “γ2/γ1 Selectivity Ratio” value in experiment [3] was found to be 103.2. Also, in experiment [4], the “Efficacy (GABA)%” value is reported as 70%.
